Assays:
[1] = Kinetic Solubility Assay in pH 7.4 Buffer + 2% DMSO; type: physicochemical; details: phosphate-buffered saline pH 7.4 with 2% DMSO, aqueous buffer, kinetic from dmso stock, 25° C., two hours
Outline: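 Compound from 20 mM DMSO stock diluted to nominal 400 μM in PBS pH 7.4 with 2% DMSO, in duplicate, shaken 2 h at 25° C., then filtered. Filtrate quantified by UV absorbance (230-550 nm) against 10-200 μM calibration curves; effective range ~2-400 μM.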

MAPK p38 phosphorylation = assay: MAPK p38 Activation Assay (western blot), Panc-1; type: cell-based, human; details: at 10 μM, Panc-1 pancreatic cancer cell line; starred symbols = activation
Outline: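 Panc-1 cells (KRas G12D) were treated with compound for 6 h at 37 °C, at 10 μM or as serial dilutions for IC50, with 0.3% DMSO. Method 1 used overnight serum-starved cells (0.5% FBS) stimulated with 1.5 ng/ml EGF for 15 min; Method 2 used unstimulated cells in 10% FBS. Phospho-p38 (Thr180/Tyr182) was detected by western blot.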

cdc42 = molecular target: T1, cdc42 (Homo sapiens, UniProt P60953); assay: Cdc42 GTP Binding Domain Inhibition Assay; details: read-out: Cdc42: % inh.
T1 construct: made in house
T1 sequence (P60953 whole entry, the tested form may be a part): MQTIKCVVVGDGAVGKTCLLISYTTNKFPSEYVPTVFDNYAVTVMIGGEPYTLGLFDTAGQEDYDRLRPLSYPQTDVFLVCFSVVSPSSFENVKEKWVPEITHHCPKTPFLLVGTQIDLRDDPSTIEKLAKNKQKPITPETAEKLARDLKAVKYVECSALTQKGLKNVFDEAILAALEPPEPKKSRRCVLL
Procedure: (§1) Protocol for Cdc42 and Rheb GTP Binding Domain Inhibition Assay
(§2) The following method was developed as specific assay for cdc42 and Rheb proteins.
(§3) • 25 mM Tris-HCl, pH 7.4 • 27 mM KCl • 137 mM NaCl • 1 mM MgCl2 • 1 mM DTT Buffer-II: • 50 mM Tris-HCl, pH 7.0 • 1 mM MgCl2 • 1 mM DTT
(§4) The small GTPases proteins cdc42 and Rheb were expressed as His-tagged proteins. For the assay, the cdc42 and Rheb purified small GTPases proteins were diluted in Buffer-I or Buffer-II to a final concentration of 10-30 μg/mL. 200 μL of each diluted protein was added to a nickel-coated 96-well plate and incubated overnight at […]. Then the protein solution was discarded and 200 μL of Buffer-I or Buffer-II was added to each well in the presence of 1% DMSO. Compounds to be tested were added to the protein-coated wells at final concentration of 20 μM, and incubated for 3 hours at room temperature with and without 10-30 μg/mL of Sos added to the final hour of the incubation. When performing IC50 measurements a serial dilution of all tested concentrations was added. Then Cy3-GTP or Cy5-GTP was added to each well to a final concentration of 100 nM. The labeled GTP was incubated for 45 minutes at room temperature. Following GTP incubation, wells were washed 3× in Buffer-I or Buffer-II and 200 μL of Buffer-I or Buffer-II was added to each well. Following washes, the amount of bound labeled-GTP was measured using a SpectraMax M3 (Molecular Devices).

Rheb = molecular target: T2, Rheb (Homo sapiens, UniProt Q15382); assay: Rheb GTP Binding Domain Inhibition Assay; details: read-out: Rheb: % inh.
T2 construct: made in house
T2 sequence (Q15382 whole entry, the tested form may be a part): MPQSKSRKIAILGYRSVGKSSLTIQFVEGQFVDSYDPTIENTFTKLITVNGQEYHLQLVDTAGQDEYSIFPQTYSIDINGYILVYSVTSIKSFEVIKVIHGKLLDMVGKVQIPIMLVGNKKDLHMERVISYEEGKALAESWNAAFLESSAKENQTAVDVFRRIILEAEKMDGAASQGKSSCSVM
Procedure: as §1, §2, §3, §4

Compound | solubility at 2 h [1] | % inh of MAPK p38 in Panc-1 (MAPK p38 phosphorylation) | inhibition at 20 µM (cdc42) | inhibition at 20 µM (Rheb)
Cc1c(-c2ccn(C)n2)cn2nc(-c3nccn3C)nc(Nc3cc(-c4ccccn4)[nH]n3)c12 [Compound 265, 5-Methyl-2-(1-methyl-1H-imidazol-2-yl)-6-(1-methyl-1H-pyrazol-3-yl)-N-(5-(pyridin-2-yl)-1H-pyrazol-3-yl)pyrrolo[2,1-f][1,2,4]triazin-4-amine] | < 10 µM |  |  | 
Cc1c(-c2ccn(C)n2)cn2nc(-c3nccn3C)nc(Nc3cc(-c4ccccn4)ccn3)c12 [Compound 248, N-([2,4′-Bipyridin]-2′-yl)-5-methyl-2-(1-methyl-1H-imidazol-2-yl)-6-(1-methyl-1H-pyrazol-3-yl)pyrrolo[2,1-f][1,2,4]triazin-4-amine] | < 10 µM |  |  | 
COc1cc(Nc2nc(-c3nccn3C)nn3cc(-c4cccc(OC)n4)c(C)c23)ncn1 [Compound 65, 6-(6-Methoxypyridin-2-yl)-N-(6-methoxypyrimidin-4-yl)-5-methyl-2-(1-methyl-1H-imidazol-2-yl)pyrrolo[2,1-f][1,2,4]triazin-4-amine] |  | H* (H* ≥ 100% activation) | 26 to 49% | 0%
CCn1ccc(-c2cn3nc(-c4nccn4C)nc(Nc4cc(OC)ncn4)c3c2C)n1 [Compound 64, 6-(1-Ethyl-1H-pyrazol-3-yl)-N-(6-methoxypyrimidin-4-yl)-5-methyl-2-(1-methyl-1H-imidazol-2-yl)pyrrolo[2,1-f][1,2,4]triazin-4-amine] |  | H* (H* ≥ 100% activation) | 76 to 100% | 50 to 75%
Cc1c(-c2ccn(C(C)C)n2)cn2nc(-c3nccn3C)nc(Nc3ccncc3)c12 [Compound 52, 6-(1-Isopropyl-1H-pyrazol-3-yl)-5-methyl-2-(1-methyl-1H-imidazol-2-yl)-N-(pyridin-4-yl)pyrrolo[2,1-f][1,2,4]triazin-4-amine] |  | F* (F* = 31-74% activation) | 1 to 25% | 0%
Cc1c(-c2ccn(C(C)C)n2)cn2nc(-c3nccn3C)nc(Nc3nc(C4CC4)no3)c12 [Compound 70, 3-Cyclopropyl-N-(6-(1-isopropyl-1H-pyrazol-3-yl)-5-methyl-2-(1-methyl-1H-imidazol-2-yl)pyrrolo[2,1-f][1,2,4]triazin-4-yl)-1,2,4-oxadiazol-5-amine] |  | H* (H* ≥ 100% activation) | 1 to 25% | 1 to 25%
COc1cccc(-c2cn3nc(-c4nccn4C)nc(N[C@@H]4CC[C@@H](OC)C4)c3c2-c2ccccn2)c1F (racemic) [Compound 46, rac 6-(2-Fluoro-3-methoxyphenyl)-N-((1R,3R)-3-methoxycyclopentyl)-2-(1-methyl-1H-imidazol-2-yl)-5-(pyridin-2-yl)pyrrolo[2,1-f][1,2,4]triazin-4-amine] |  | H (H = 100% inhibition) | 50 to 75% | 50 to 75%
COc1cccc(-c2cn3nc(-c4nccn4C)nc(N[C@H]4C[C@H](OC)C4)c3c2-c2ccccc2)c1F [Compound 42, 6-(2-Fluoro-3-methoxyphenyl)-N-((1r,3r)-3-methoxycyclobutyl)-2-(1-methyl-1H-imidazol-2-yl)-5-phenylpyrrolo[2,1-f][1,2,4]triazin-4-amine] |  | H* (H* ≥ 100% activation) | 1 to 25% | 1 to 25%
COc1cc(Nc2nc(-c3nccn3C)nn3cc(-c4ccn(C(C)C)n4)c(C)c23)n[nH]1 [Compound 51, 6-(1-Isopropyl-1H-pyrazol-3-yl)-N-(5-methoxy-1H-pyrazol-3-yl)-5-methyl-2-(1-methyl-1H-imidazol-2-yl)pyrrolo[2,1-f][1,2,4]triazin-4-amine] |  | H* (H* ≥ 100% activation) | 50 to 75% | 50 to 75%
COc1cccc(-c2cn3nc(-c4nccn4C)nc(N[C@@H]4CC[C@@H](OC)C4)c3c2-c2ccccc2)c1F (racemic) [Compound 43, rac 6-(2-Fluoro-3-methoxyphenyl)-N-((1R,3R)-3-methoxycyclopentyl)-2-(1-methyl-1H-imidazol-2-yl)-5-phenylpyrrolo[2,1-f][1,2,4]triazin-4-amine] |  | H* (H* ≥ 100% activation) | 1 to 25% | 26 to 49%
COCCO[C@H]1C[C@H](Nc2nc(-c3nccn3C)nn3cc(-c4cccc(OC)c4F)c(-c4ccccc4)c23)C1 [Compound 44, 6-(2-Fluoro-3-methoxyphenyl)-N-((1r,3r)-3-(2-methoxyethoxy)cyclobutyl)-2-(1-methyl-1H-imidazol-2-yl)-5-phenylpyrrolo[2,1-f][1,2,4]triazin-4-amine] |  | H* (H* ≥ 100% activation) | 26 to 49% | 26 to 49%
COc1cccc(-c2cn3nc(-c4nccn4C)nc(N[C@H]4C[C@H](OC)C4)c3c2-c2ccccc2)c1Cl [Compound 32, 6-(2-Chloro-3-methoxyphenyl)-N-((1r,3r)-3-methoxycyclobutyl)-2-(1-methyl-1H-imidazol-2-yl)-5-phenylpyrrolo[2,1-f][1,2,4]triazin-4-amine] |  | H (H = 100% inhibition) | 1 to 25% | 26 to 49%
COc1ccc(Nc2nc(-c3nccn3C)nn3cc(-c4ccn(C(C)C)n4)c(C)c23)cn1 [Compound 71, 6-(1-Isopropyl-1H-pyrazol-3-yl)-N-(6-methoxypyridin-3-yl)-5-methyl-2-(1-methyl-1H-imidazol-2-yl)pyrrolo[2,1-f][1,2,4]triazin-4-amine] |  | H* (H* ≥ 100% activation) | 1 to 25% | 1 to 25%
COc1cccc(-c2cn3nc(-c4nccn4C)nc(N[C@H]4C[C@H](OC)C4)c3c2-c2ccn(C)n2)c1F [Compound 47, 6-(2-Fluoro-3-methoxyphenyl)-N-((1r,3r)-3-methoxycyclobutyl)-2-(1-methyl-1H-imidazol-2-yl)-5-(1-methyl-1H-pyrazol-3-yl)pyrrolo[2,1-f][1,2,4]triazin-4-amine] |  | F (F = 31-74% inhibition) | 1 to 25% | 1 to 25%
COc1cccc(-c2cn3nc(-c4nccn4C)nc(N[C@H]4C[C@H](OC)C4)c3c2-c2ccccn2)c1F [Compound 45, 6-(2-Fluoro-3-methoxyphenyl)-N-((1r,3r)-3-methoxycyclobutyl)-2-(1-methyl-1H-imidazol-2-yl)-5-(pyridin-2-yl)pyrrolo[2,1-f][1,2,4]triazin-4-amine] |  | H* (H* ≥ 100% activation) | 26 to 49% | 50 to 75%
Cc1c(-c2ccn(C(C)C)n2)cn2nc(-c3nccn3C)nc(Nc3ccn(C(C)C)n3)c12 [Compound 72, N,6-bis(1-Isopropyl-1H-pyrazol-3-yl)-5-methyl-2-(1-methyl-1H-imidazol-2-yl)pyrrolo[2,1-f][1,2,4]triazin-4-amine] |  | H* (H* ≥ 100% activation) | 50 to 75% | 50 to 75%
Cc1c(-c2ccn(C(C)C)n2)cn2nc(-c3nccn3C)nc(Nc3nnc(C4CC4)o3)c12 [Compound 67, 5-Cyclopropyl-N-(6-(1-isopropyl-1H-pyrazol-3-yl)-5-methyl-2-(1-methyl-1H-imidazol-2-yl)pyrrolo[2,1-f][1,2,4]triazin-4-yl)-1,3,4-oxadiazol-2-amine] |  | H* (H* ≥ 100% activation) | 26 to 49% | 50 to 75%
